In patent US9133228B2, “Guanidinyl-substituted polyamides useful for treating human papilloma virus” (Nanovir, LLC, priority 2011, dated 2015) one finds IC50 and IC90 data, which are given here for six molecules.

What all share (assay type): cell-based, Human papilloma virus
Experiment [1] relates to HPV31. Put plainly: Inhibition of viral replication in cells that maintain HPV31 DNA, viral DNA quantified by real-time PCR. The text has this: (§1) Table 1a lists a number of exemplary polyamides synthesized in accordance with the present invention. The HPLC/MW values given in Table 1b were obtained using low resolution high pressure liquid chromatography/mass spectrometry (LR HPLC/MS), which provides moderate precision masses of single isotopomers rather than average molecular weights or exact masses. Table 2 presents a summary of measured IC50 values of certain of these polyamides against HPV16, HPV18 and HPV31. The IC50 is the concentration of compound required for 50% inhibition of viral replication in vitro. The polyamides were tested in cells that maintain HPV16, HPV18 or HPV31 DNA. Cells maintaining the selected HPV were cultured for 72 hours in the presence of the polyamide. Viral DNA was then quantified using real-time PCR and compared to vehicle (DMSO)-treated control cultures. […] Table 3 presents a summary of measured IC50 and IC90 values of certain of these polyamides against HPV16, HPV18 and HPV31.

Experiment [2] deals with HPV16. Put plainly: Inhibition of viral replication in cells that maintain HPV16 DNA, viral DNA quantified by real-time PCR.
Text: as §1

Experiment [3] deals with HPV18. The experiment is described as follows: Inhibition of viral replication in cells that maintain HPV18 DNA, viral DNA quantified by real-time PCR.
Text: as §1

[4] abbreviates: cells maintaining HPV31 cultured 72 hours with polyamide, vs DMSO control, highest dose tested 10 μM.
The mark [5] stands for this setting: cells maintaining HPV16 cultured 72 hours with polyamide, vs DMSO control, highest dose tested 10 μM.
Setting [6] is: cells maintaining HPV18 cultured 72 hours with polyamide, vs DMSO control, highest dose tested 10 μM.

Turning to `CN(C)CCCNC(=O)CCNC(=O)c1cc(NC(=O)CCNC(=O)c2cc(NC(=O)c3cc(NC(=O)c4cc(NC(=O)CCNC(=O)c5cc(NC(=O)c6cc(NC(=O)CCNC(=O)c7cc(NC(=O)CCCNC(=O)c8nc(NC(=O)c9cc(NC(=O)CCNC(=O)c%10cc(NC(=O)c%11cc(NC(=O)CCNC(=O)c%12cc(NC(=O)c%13cc(NC(=O)c%14cc(N=C(N(C)C)N(C)C)cn%14C)cn%13C)cn%12C)cn%11C)cn%10C)cn9C)cn8C)cn7C)cn6C)cn5C)cn4C)cn3C)cn2C)cn1C` [NV1088, TMG-PyPyPyβPyPyβPyIm-γ-PyβPyPyβPyPyPyβPyβ-Dp•3TFA], the IC50 in experiment [1] (setting [4]) stood at 14 nM; in experiment [2] (setting [5]), 20 nM; in experiment [3] (setting [6]) it was 35 nM.

For `CN(C)CCCNC(=O)CCNC(=O)c1cc(NC(=O)c2cc(NC(=O)c3cc(NC(=O)CCNC(=O)c4cc(NC(=O)c5cc(NC(=O)c6cc(NC(=O)CCNC(=O)c7cc(NC(=O)c8cc(NC(=O)CCCNC(=O)c9cc(NC(=O)c%10cc(NC(=O)CCNC(=O)c%11nc(NC(=O)c%12cc(NC(=O)c%13cc(NC(=O)CCNC(=O)c%14cc(N=C(N(C)C)N(C)C)cn%14C)cn%13C)cn%12C)cn%11C)cn%10C)cn9C)cn8C)cn7C)cn6C)cn5C)cn4C)cn3C)cn2C)cn1C` [NV1080, TMG-PyβPyPyImβPyPy-γ-PyPyβPyPyPyβPyPyPyβ-Dp•3TFA], the half-inhibitory concentration (IC50) in experiment [1] (setting [4]) amounted to 47 nM; in experiment [2] (setting [5]) it was 53 nM; in experiment [3] (setting [6]) it was 35 nM.

Turning to `CN(C)CCCNC(=O)CCNC(=O)c1cc(NC(=O)CCNC(=O)c2cc(NC(=O)c3cc(NC(=O)c4cc(NC(=O)CCNC(=O)c5cc(NC(=O)c6cc(NC(=O)CCNC(=O)c7cc(NC(=O)CCCNC(=O)c8nc(NC(=O)c9cc(NC(=O)CCNC(=O)c%10cc(NC(=O)c%11cc(NC(=O)CCNC(=O)c%12cc(NC(=O)c%13cc(N=C(N(C)C)N(C)C)cn%13C)cn%12C)cn%11C)cn%10C)cn9C)cn8C)cn7C)cn6C)cn5C)cn4C)cn3C)cn2C)cn1C` [NV1089, TMG-PyPyβPyPyβPyIm-γ-PyβPyPyβPyPyPyβPyβ-Dp•3TFA], the figures for the IC50 in experiment [1] (setting [4]), in experiment [2] (setting [5]) and in experiment [3] (setting [6]) were 46 nM, 68 nM and 68 nM, respectively.

For the molecule `CN(C)CCCNC(=O)CCNC(=O)c1cc(NC(=O)c2cc(NC(=O)c3cc(NC(=O)c4cc(NC(=O)CCNC(=O)c5cc(NC(=O)c6cc(NC(=O)CCCNC(=O)c7cc(NC(=O)c8cc(NC(=O)c9cc(NC(=O)CCNC(=O)c%10cc(N=C(N(C)C)N(C)C)cn%10C)cn9C)cn8C)cn7C)cn6C)cn5C)cn4C)cn3C)cn2C)cn1C` [NV1081, TMG-PyβPyPyPy-γ-PyPyβPyPyPyPyβ-Dp•2TFA], the IC50 in experiment [1] (setting [4]), in experiment [2] (setting [5]) and in experiment [3] (setting [6]) was above 10000 nM each time.

In the case of `CN(CCCN)CCCNC(=O)CCNC(=O)c1cc(NC(=O)CCNC(=O)c2cc(NC(=O)c3cc(NC(=O)c4cc(NC(=O)CCNC(=O)c5cc(NC(=O)c6cc(NC(=O)c7cc(NC(=O)CCCNC(=O)c8cc(NC(=O)CCNC(=O)c9cc(NC(=O)c%10cc(NC(=O)CCNC(=O)c%11cc(NC(=O)c%12cc(NC(=O)c%13cc(N=C(N(C)C)N(C)C)cn%13C)cn%12C)cn%11C)cn%10C)cn9C)cn8C)cn7C)cn6C)cn5C)cn4C)cn3C)cn2C)cn1C` [NV1098, TMG-PyPyPyβPyPyβPy-γ-PyPyPyβPyPyPyβPyβ-Ta•3TFA], the IC50 in experiment [1] (Table 3, 72 hours) came out at 24 nM; in experiment [1] (setting [4]) it was 24 nM; in experiment [2] (Table 3, 72 hours), 11 nM; in experiment [2] (setting [5]) it was 11 nM; in experiment [3] (Table 3, 72 hours) it was 17 nM; in experiment [3] (setting [6]), 17 nM. Also, the IC90 is 549 nM in experiment [1] (Table 3, 72 hours); 1360 nM in experiment [2] (Table 3, 72 hours); above 10 µM in experiment [3] (Table 3, 72 hours).

Turning to `CN(CCCN)CCCNC(=O)CCNC(=O)c1cc(NC(=O)c2cc(NC(=O)c3cc(NC(=O)CCNC(=O)c4cc(NC(=O)c5cc(NC(=O)c6cc(NC(=O)CCCNC(=O)c7cc(NC(=O)c8cc(NC(=O)CCNC(=O)c9nc(NC(=O)c%10cc(N=C(N(C)C)N(C)C)cn%10C)cn9C)cn8C)cn7C)cn6C)cn5C)cn4C)cn3C)cn2C)cn1C` [NV1094, TMG-PyImβPyPy-γ-PyPyPyβPyPyPyβ-Ta•4TFA], the IC50 in experiment [1] (setting [4]), in experiment [2] (setting [5]) and in experiment [3] (setting [6]) was above 10000 nM throughout.
